Tests used:
[1] = molecular target: T1, androgen receptor (AR-LBD) (Rattus norvegicus, UniProt P15207); experiment: Evaluation of androgen receptor affinity (PolarScreen Androgen Receptor Competitor Assay Kit, Red; fluorescence polarization); conditions: 22° C. for 5 hours, relative to binding rate of 1 μM DHT, read-out: AR affinity (pEC50) (converted)
T1 construct: 5 μL of 2×AR-LBD/Fluoromone AL Red Complex contained in the kit; purchased Invitrogen
T1 sequence (P15207 651-882 limits assumed): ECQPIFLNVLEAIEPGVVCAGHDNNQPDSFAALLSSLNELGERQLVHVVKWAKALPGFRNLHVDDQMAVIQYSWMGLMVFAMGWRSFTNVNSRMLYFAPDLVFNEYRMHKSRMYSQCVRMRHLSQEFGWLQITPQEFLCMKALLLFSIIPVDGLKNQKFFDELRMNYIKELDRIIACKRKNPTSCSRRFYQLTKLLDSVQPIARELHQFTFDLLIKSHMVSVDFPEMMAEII
How it was run: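 Duplicate wells; compound plus AR-LBD tracer complex incubated 22° C for 5 h, then FP measured. Effect compared with 1 μM DHT; 50%-effect concentration expressed as pEC50.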

[2] = molecular target: T2, human androgen receptor (Homo sapiens, UniProt P10275); experiment: Reporter assay of an androgen receptor responsive sequence (luciferase, transiently transfected HEK293 cells); format: cell-based; conditions: 24 hours incubation, relative to activity of 100 nM DHT, read-out: AR transcriptive activity (pEC50) (converted)
T2 construct: expressed in transfected cells; host or cells: HEK293
T2 sequence (P10275 1-920): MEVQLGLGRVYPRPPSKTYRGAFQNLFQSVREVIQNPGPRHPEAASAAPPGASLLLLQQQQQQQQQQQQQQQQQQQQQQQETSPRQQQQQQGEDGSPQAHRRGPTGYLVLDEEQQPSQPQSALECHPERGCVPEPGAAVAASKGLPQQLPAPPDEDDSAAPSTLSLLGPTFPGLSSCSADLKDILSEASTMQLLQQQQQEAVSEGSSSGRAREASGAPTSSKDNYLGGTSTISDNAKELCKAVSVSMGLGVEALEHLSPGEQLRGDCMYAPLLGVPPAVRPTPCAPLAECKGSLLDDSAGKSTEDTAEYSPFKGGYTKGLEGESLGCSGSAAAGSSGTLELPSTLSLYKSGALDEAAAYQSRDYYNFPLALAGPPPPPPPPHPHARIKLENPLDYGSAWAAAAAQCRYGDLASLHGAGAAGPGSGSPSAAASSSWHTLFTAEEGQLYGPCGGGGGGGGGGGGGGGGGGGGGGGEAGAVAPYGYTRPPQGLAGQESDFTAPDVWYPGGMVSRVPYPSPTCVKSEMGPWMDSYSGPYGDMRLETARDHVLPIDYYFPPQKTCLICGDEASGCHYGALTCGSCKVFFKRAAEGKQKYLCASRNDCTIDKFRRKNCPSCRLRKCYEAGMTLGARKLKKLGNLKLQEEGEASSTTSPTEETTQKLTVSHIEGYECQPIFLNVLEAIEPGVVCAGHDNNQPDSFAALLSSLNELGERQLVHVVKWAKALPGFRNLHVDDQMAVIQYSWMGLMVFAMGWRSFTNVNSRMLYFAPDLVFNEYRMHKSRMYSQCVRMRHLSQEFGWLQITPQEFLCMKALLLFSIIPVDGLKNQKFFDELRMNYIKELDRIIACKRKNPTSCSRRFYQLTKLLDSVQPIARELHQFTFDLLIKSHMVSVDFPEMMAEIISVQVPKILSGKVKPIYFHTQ
How it was run: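 Agonism scored as pEC50, fitted by 4-parameter curve against the response to 100 nM DHT, from dual-luciferase readout after 24 h compound treatment. Cells were HEK293 co-transfected (3 h) with human AR expression vector, androgen-responsive firefly reporter and Renilla control, in charcoal-stripped serum.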

SMILES | EC50 [1] [nM] | EC50 [2] [nM]
Cc1sc(N(Cc2ccc3c(c2)OCO3)c2ccc(C#N)cc2)nc1C(=O)NS(C)(=O)=O [Compound 128, 2-[N-(1,3-benzodioxol-5-ylmethyl)-4-cyano-anilino]-5-methyl-N-methylsulfonyl-thiazole-4-carboxamide] | 39.8 | 100
Cc1sc(N(Cc2cccc(N)c2)c2ccc(C#N)cc2)nc1C(=O)NS(C)(=O)=O [Example 203, 2-[N-[(3-aminophenyl)methyl]-4-cyano-anilino]-5-methyl-N-methylsulfonyl-thiazole-4-carboxamide] | 316 | 631
Cc1sc(N(Cc2cccc(Cl)c2F)c2ccc(C#N)cc2)nc1C(=O)NS(C)(=O)=O [Compound 107, 2-[N-[(3-chloro-2-fluoro-phenyl)methyl]-4-cyano-anilino]-5-methyl-N-methylsulfonyl-thiazole-4-carboxamide] | 50.1 | 31.6
Cc1sc(N(CCc2ccc(Cl)cc2)Cc2ccccc2)nc1C(=O)NS(C)(=O)=O [Example 299, 2-[benzyl-[2-(4-chlorophenyl)ethyl]amino]-5-methyl-N-methylsulfonyl-thiazole-4-carboxamide] | 31.6 | 126
Cc1sc(N(Cc2csc(C(F)(F)F)n2)c2ccc(C#N)cc2)nc1C(=O)NS(C)(=O)=O [Compound 2, 2-[4-cyano-N-[[2-(trifluoromethyl)thiazol-4-yl]methyl]anilino]-5-methyl-N-methylsulfonyl-thiazole-4-carboxamide] | 100 | 100
Cc1sc(N(CCC2CCCC2)c2ccc(C#N)cc2)nc1C(=O)NS(C)(=O)=O [Compound 78, 2-[4-cyano-N-(2-cyclopentylethyl)anilino]-5-methyl-N-methylsulfonyl-thiazole-4-carboxamide] | 25.1 | 158
Cc1sc(N(CCc2ccc(OC(F)F)cc2)Cc2ccc(F)cc2)nc1C(=O)NS(C)(=O)=O [Compound 159, 2-[2-[4-(difluoromethoxy)phenyl]ethyl-[(4-fluorophenyl)methyl]amino]-5-methyl-N-methylsulfonyl-thiazole-4-carboxamide] | 63.1 | 398
Cc1sc(N(Cc2cccc(F)c2)c2ccc(C#N)cc2)nc1C(=O)NS(C)(=O)=O [Compound 14, 2-[4-cyano-N-[(3-fluorophenyl)methyl]anilino]-5-methyl-N-methylsulfonyl-thiazole-4-carboxamide] | 79.4 | 50.1
Cc1sc(N(Cc2cccc(SC(F)(F)F)c2)c2ccc(C#N)cc2)nc1C(=O)NS(C)(=O)=O [Compound 57, 2-[4-cyano-N-[[3-(trifluoromethylsulfanyl)phenyl]methyl]anilino]-5-methyl-N-methylsulfonyl-thiazole-4-carboxamide] | 31.6 | 316
Cc1sc(N(Cc2cc(F)cc(F)c2F)c2ccc(C#N)cc2)nc1C(=O)NS(C)(=O)=O [Compound 109, 2-[4-cyano-N-[(2,3,5-trifluorophenyl)methyl]anilino]-5-methyl-N-methylsulfonyl-thiazole-4-carboxamide] | 100 | 200
Cc1sc(N(CCc2ccc(F)c(F)c2)Cc2ccccc2)nc1C(=O)NS(C)(=O)=O [Compound 148, 2-[benzyl-[2-(3,4-difluorophenyl)ethyl]amino]-5-methyl-N-methylsulfonyl-thiazole-4-carboxamide] | 25.1 | 100
CCc1oc(N(Cc2ccc(OC(F)(F)F)cc2)c2ccc(C#N)cc2)nc1C(=O)NS(C)(=O)=O [Compound 632, 2-[4-cyano-N-[[4-(trifluoromethoxy)phenyl]methyl]anilino]-5-ethyl-N-methylsulfonyl-oxazole-4-carboxamide] | 39.8 | 1000
CCC(C)CN(c1ccc(C#N)cc1)c1nc(C(=O)NS(C)(=O)=O)c(C)s1 (centres unmarked) [Compound 89, 2-[4-cyano-N-(2-methylbutyl)anilino]-5-methyl-N-methylsulfonyl-thiazole-4-carboxamide] | 501 | > 10000
CCS(=O)(=O)NC(=O)c1nc(N(Cc2ccc(Cl)cc2)c2ccc(C#N)cc2)oc1C [Compound 627, 2-[N-[(4-chlorophenyl)methyl]-4-cyano-anilino]-N-ethylsulfonyl-5-methyl-oxazole-4-carboxamide] | 50.1 | 1000
Cc1sc(N(Cc2cccc(=O)[nH]2)c2ccc(C#N)cc2)nc1C(=O)NS(C)(=O)=O [Compound 493, 2-[4-cyano-N-[(6-oxo-1H-pyridin-2-yl)methyl]anilino]-5-methyl-N-methylsulfonyl-thiazole-4-carboxamide] | > 2000 | > 10000
Cc1sc(N(CCc2ccccc2)c2ccc(C#N)cc2)nc1C(=O)NS(C)(=O)=O [Compound 52, 2-[4-cyano-N-(2-phenylethyl)anilino]-5-methyl-N-methylsulfonyl-thiazole-4-carboxamide] | 398 | 2510
Cc1sc(N(CCc2ccc(OC(F)(F)F)cc2)Cc2ccc(Cl)cn2)nc1C(=O)NS(C)(=O)=O [Compound 512, 2-[(5-chloro-2-pyridyl)methyl-[2-[4-(trifluoromethoxy)phenyl]ethyl]amino]-5-methyl-N-methylsulfonyl-thiazole-4-carboxamide] | 100 | 1260
CS(=O)(=O)NC(=O)c1nc(N(Cc2ccccc2Cl)c2ccc(C#N)cc2)sc1Cl [Example 263, 5-chloro-2-[N-[(2-chlorophenyl)methyl]-4-cyano-anilino]-N-methylsulfonyl-thiazole-4-carboxamide] | 63.1 | 316
Cc1sc(N(CCc2ccc(C#N)cc2)CC2CCCCC2)nc1C(=O)NS(C)(=O)=O [Compound 716, 2-[2-(4-cyanophenyl)ethyl-(cyclohexylmethyl)amino]-5-methyl-N-methylsulfonyl-thiazole-4-carboxamide] | 631 | > 10000
Cc1sc(N(Cc2ccc(OC(F)F)cn2)c2ccc(C#N)cc2)nc1C(=O)NS(C)(=O)=O [Compound 511, 2-[4-cyano-N-[[5-(difluoromethoxy)-2-pyridyl]methyl]anilino]-5-methyl-N-methylsulfonyl-thiazole-4-carboxamide] | 158 | 316
Cc1sc(N(Cc2ccc(F)c(F)c2)c2ccc(C#N)cc2)nc1C(=O)NS(C)(=O)=O [Compound 97, 2-[4-cyano-N-[(3,4-difluorophenyl)methyl]anilino]-5-methyl-N-methylsulfonyl-thiazole-4-carboxamide] | 50.1 | 31.6
Cc1sc(N(CCOCc2ccccc2)c2ccc(C#N)cc2)nc1C(=O)NS(C)(=O)=O [Compound 367, 2-[N-(2-benzyloxyethyl)-4-cyano-anilino]-5-methyl-N-methylsulfonyl-thiazole-4-carboxamide] | 158 | > 10000
CS(=O)(=O)NC(=O)c1nc(N(Cc2cccc(OC(F)(F)F)c2)c2ccc(C#N)cc2)sc1Cl [Example 273, 5-chloro-2-[4-cyano-N-[[3-(trifluoromethoxy)phenyl]methyl]anilino]-N-methylsulfonyl-thiazole-4-carboxamide] | 31.6 | 63.1
Cc1sc(N(Cc2cc(F)cc(C(F)(F)F)c2)c2ccc(C#N)cc2)nc1C(=O)NS(C)(=O)=O [Compound 416, 2-[4-cyano-N-[[3-fluoro-5-(trifluoromethyl)phenyl]methyl]anilino]-5-methyl-N-methylsulfonyl-thiazole-4-carboxamide] | 25.1 | 158
Cc1sc(N(Cc2ccc3c(c2)OCCO3)c2ccc(C#N)cc2)nc1C(=O)NS(C)(=O)=O [Compound 123, 2-[4-cyano-N-(2,3-dihydro-1,4-benzodioxin-6-ylmethyl)anilino]-5-methyl-N-methylsulfonyl-thiazole-4-carboxamide] | 50.1 | 100

Reference: US10689354B2, “Aminoazole derivative” (Teijin Pharma Limited, priority 2015, dated 2020)
